# Patent US20250034586A1, “METHOD FOR EDITING BANANA GENES” (Tropic Biosciences UK Limited, priority 2021, published 2025)
# Key:
# [1] = test system: banana embryos or leaf material; experiment: Comparison of selection using ALS inhibitor, G418 or hygromycin (genotyping of embryos or leaf material); format: cell-based; conditions: embryos
# Excerpt: In every case, regenerated material was transformed with constructs containing T-DNA that would generate resistance in positive transformants.
# PPO2, Ma07_g03540 = experiment: Trait co-editing in selected embryos (PBE #3); format: cell-based, banana; conditions: G418 selection
# Procedure: (§1) We transformed ECS as described previously in Example 6, using the new co-editing plasmids detailed in Table 11 above. Embryos were regenerated as detailed previously, either on media without selection, with 25 mg/L G418, 25 μg/L CSF or 50 μg/L CSF. Initial genotyping of all plasmids tested:
# (§2) • All with CsVMV-rAPOBEC1 CBE (rAPOBEC+nCas9 (D10A) PBE from Zong et al. 2017*) and nosP-NptII • pMol_0925 (sgGFP-pNOS::Kan::tOCS-pCsVMV::nCas9PBE1::tg7-Dummy-pTaU6::sg1GFP_58-pTaU6::sg2GFP_59) • pMol_0934 (sgGFP, sgALS1-pNOS::Kan::tOCS-pCsVMV::nCas9PBE1::tg7-taU6::MaALS1sg2_2021-pTaU6::sg1GFP_58-pTaU6::sg2GFP_59) • pMol_0935 (sgGFP, sgALS2-pNOS::Kan::tOCS-pCsVMV::nCas9PBE1::tg7-taU6::MaALS2sg2_2023-pTaU6::sg1GFP_58-pTaU6::sg2GFP_59) • pMol_0926 (sgPPO2, sgALS1-pNOS::Kan::tOCS-pCsVMV::nCas9PBE1::tg7-taU6::MaALS1sg2_2021-pTaU6::sg1PPO2_2961-pTaU6::sg2PPO2_2962-pTaU6::sg3PPO2_2963) • pMol_0927 (sgPPO2, sgALS1-pNOS::Kan::tOCS-pCsVMV::nCas9PBE1::tg7-taU6::MaALS1sg2_2021-pTaU6::sg3PPO2_2963-pTaU6::sg4PPO2_2964) • pMol_0928 (sgACO1, sgALS1-pNOS::Kan::tOCS-pCsVMV::nCas9PBE1::tg7-taU6::MaALS1sg2_2021-pTaU6::sg1ACO1_2965-pTaU6::sg2ACO1_2966-pTaU6::sg3ACO1_2967) • pMol_0929 (sgPPO2, sgALS2-pNOS::Kan::tOCS-pCsVMV::nCas9PBE1::tg7-taU6::MaALS2sg2_2023-pTaU6::sg1PPO2_2961-pTaU6::sg2PPO2_2962-pTaU6::sg3PPO2_2963) • pMol_0930 (sgPPO2, sgALS2-pNOS::Kan::tOCS-pCsVMV::nCas9PBE1::tg7-taU6::MaALS2sg2_2023-pTaU6::sg3PPO2_2963-pTaU6::sg4PPO2_2964) • pMol_0931 (sgACO1, sgALS2-pNOS::Kan::tOCS-pCsVMV::nCas9PBE1::tg7-taU6::MaALS2sg2_2023-pTaU6::sg1ACO1_2965-pTaU6::sg2ACO1_2966-pTaU6::sg3ACO1_2967) ECS were left to ‘recover’ after transformation for 1 week in CS+cefo 300 mg/L. We regenerated embryos in 4 different conditions: • 1. No selection • 2. Stable G418 selection (in EDM only 2-3 months) from PBE #3 only (PBE #1/2 plasmids only have mCherry, not NptII) • 3. 25 μg/L chlorsulfuron (in EDM only 2-3 months) • 4. 50 μg/L chlorsulfuron (in EDM only 2-3 months)
# (§3) gDNA from embryos and plantlets was extracted and qPCR was used to test for the presence of integrated tDNA in the plant genome. Three independent qPCRs were run on each sample with different sets of primers (listed below) spanning the tDNA, ranging from the left to right border. An additional qPCR was run on an endogenous banana gene (actin) for normalisation of Ct values. All qPCRs were run on the LightCycler® 96 System (Roche) using PowerUp™ SYBR® Green Master Mix (Thermo Fisher Scientific™).
# (§4) For edit validation, amplicons for each target gene (als1, als2, ppo2, aco1) were made using Q5® High-Fidelity 2× Master Mix (New England Biolabs, NEB) using reaction settings listed below. PCR products were purified using Monarch® PCR & DNA Cleanup Kit (NEB) according to manufacturer's specifications. The amplicons were after validated by Sanger sequencing.
# ACO1, Ma01_g11540 = experiment: Trait co-editing in selected embryos (PBE #3); format: cell-based, banana; conditions: G418 selection
# Procedure: as §1, §2, §3, §4
smiles,measurement,setting,value
CN[C@@H]1[C@@H](O)[C@@H](O[C@@H]2[C@@H](O)[C@H](O[C@H]3O[C@H]([C@@H](C)O)[C@@H](O)[C@H](O)[C@H]3N)[C@@H](N)C[C@H]2N)OC[C@]1(C)O [Plasmid G418],Editing frequency,[1]; stable selection,17/28 = 60.7%
same,Transgenic frequency,[1]; stable selection,18/28 = 64.3%
same,Editing frequency,[1]; transient selection,35/867 = 4.0%
same,Non-transgenic edited,[1]; transient selection,0/774 = 0%
same,Transgenic frequency,[1]; transient selection,95/943 = 10.1%
same,Percentage edited PPO2 embryos,"PPO2, Ma07_g03540",31.25
same,PPO2 edited embryos total,"PPO2, Ma07_g03540; 16 embryos tested",5
same,Percentage edited ACO1 embryos,"ACO1, Ma01_g11540",33.33
same,ACO1 edited embryos total,"ACO1, Ma01_g11540; 6 embryos tested",2
